US20100221445A1, “O-DESMETHYLVENLAFAXINE AND BAZEDOXIFENE COMBINATION PRODUCT AND USES THEREOF” (Wyeth LLC, priority 2005, published 2010)

What was measured:
[1] = test system: MCF-7 cell line (human breast cancer cell line); settings: MCF-7 human breast cancer cell line; cited from earlier work
[2] = test system: bone loss and cholesterol; settings: ovariectomized rat model of osteopenia; cited from earlier work
[3] = test system: uterine response; settings: preclinical models of uterine stimulation; cited from earlier work
[4] = Dissolution of bilayer tablets in 0.2% Tween 80/10 mM Acetic acid at 37° C.; assay type: physicochemical
[5] = test system: reuptake of serotonin and norepinephrine; settings: cited from earlier work
[6] = Storage stability of DVS/Bazedoxifene bilayered tablets (strength, % recovery); settings: 25/60 and 40/75 for 3 months
Protocol: 80 DVS/Bazedoxifene bilayered tablets (150 mg/40 mg respectively) were stored at 25° C./60 relative humidity (RH) and 40° C./75 RH in a 50-mL high density polyethylene (HDPE) closed container for 2 weeks, 1 month and 3 months. The strengths of each active constituents and the dissolution rate in 0.2% Tween 80/10 mM Acetic acid at 37° C. were monitored.

Cc1c(-c2ccc(O)cc2)n(Cc2ccc(OCCN3CCCCCC3)cc2)c2ccc(O)cc12 [BZA, 1-[4-(2-azepan-1-yl-ethoxy)-benzyl]-2-(4-hydroxy-phenyl)-3-methyl-1H-indol-5-ol acetic acid]
Behaviour in MCF-7 cell line [1]: estrogen antagonist | Effect in preventing bone loss and reducing cholesterol [2]: estrogen agonist-like effect | Stimulation of uterine response [3]: little or no stimulation

CN(C)CC(c1ccc(O)cc1)C1(O)CCCCC1 (stereo not shown) [DVS]
Release (in words) ([4]; first 2 hours): slow release | Release (in words) ([4]; in 24 hours): complete release

CN(C)CC(c1ccc(O)cc1)C1(O)CCCCC1 (stereo not shown) [ODV, 1-[2-(dimethylamino)-1-(4-phenol)ethyl]-cyclohexanol]
Blockade of reuptake of serotonin and norepinephrine [5]: selectively blocks | Stability on storage (in words) [6]: stable
